From BigSolDB 2.1

COc1cc2nc(Cl)nc(N)c2cc1OC
solubility (mole fraction)
Settings	273.15 K	278.15 K	283.15 K	288.15 K	293.15 K	298.15 K	303.15 K	308.15 K	313.15 K
in 1,4-dioxane	–	–	–	0.000108	0.000129	0.000154	0.000183	0.000216	0.000253
in DMF	0.00286	0.00336	0.00405	0.00495	0.00586	0.00687	0.00817	0.00979	0.0116
in NMP	0.00572	0.00648	0.00746	0.00838	0.00932	0.0103	0.0113	0.0124	0.0137
in cyclohexanone	0.00109	0.0013	0.00151	0.00177	0.00206	0.00241	0.0028	0.00324	0.00385
in ethanol	0.000169	0.000206	0.000246	0.0003	0.000359	0.000423	0.000497	0.000585	0.000693
in ethyl acetate	0.000278	0.000322	0.000375	0.000443	0.000522	0.000618	0.000725	0.000853	0.00101
in isobutanol	0.000232	0.000272	0.000325	0.00038	0.000443	0.000514	0.000601	0.000706	0.000841
in isopropanol	0.000142	0.000173	0.000209	0.000257	0.000306	0.000362	0.000434	0.000518	0.000622
in methanol	0.000109	0.000139	0.000171	0.00021	0.000255	0.00031	0.000378	0.000458	0.000544
in n-butanol	0.000252	0.000294	0.000345	0.000402	0.000467	0.000548	0.000648	0.000763	0.000929
in n-propanol	0.000209	0.000245	0.00029	0.000343	0.000403	0.000471	0.000552	0.000657	0.000769
in toluene	2e-06	2.7e-06	3.7e-06	5.1e-06	6.9e-06	9.2e-06	1.26e-05	1.66e-05	2.17e-05
